# Test results: PubChem BioAssay AID1963426 (Molecular Pharmacology Branch, DTP, NCI, 2024)
# System: 186277-243-T-J2-PDC complex spheroid growth, % test/control
# Experiment: Anticancer human tumor 186277-243-T-J2-PDC patient-derived colon adenocarcinoma cell line growth inhibition [Asc]
# Conditions: for IC50: curve of first compound; for viability, T/C: stronger effect = lower value
# How it was run: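 Complex solid-tumor spheroids incorporating human endothelial and mesenchymal stem cells received single agents or combinations over half-log dilution ranges anchored to clinical Cmax.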
# [1] = second compound 0.01 µM, first compound 0.00316 µM
# [2] = second compound 0.01 µM, first compound 0.01 µM
# [3] = second compound 0.01 µM, first compound 0.0316 µM
# [4] = second compound 0.01 µM, first compound 0.1 µM
# [5] = second compound 0.01 µM, first compound 0.316 µM
# [6] = second compound 0.01 µM, first compound 1 µM
# [7] = second compound 0.0316 µM, first compound 0.00316 µM
# [8] = second compound 0.0316 µM, first compound 0.01 µM
# [9] = second compound 0.0316 µM, first compound 0.0316 µM
# [10] = second compound 0.0316 µM, first compound 0.1 µM
# [11] = second compound 0.0316 µM, first compound 0.316 µM
# [12] = second compound 0.0316 µM, first compound 1 µM
# [13] = second compound 0.1 µM, first compound 0.00316 µM
# [14] = second compound 0.1 µM, first compound 0.01 µM
# [15] = second compound 0.1 µM, first compound 0.0316 µM
# [16] = second compound 0.1 µM, first compound 0.1 µM
# [17] = second compound 0.1 µM, first compound 0.316 µM
# [18] = second compound 0.1 µM, first compound 1 µM
# [19] = second compound 0.316 µM, first compound 0.00316 µM
# [20] = second compound 0.316 µM, first compound 0.01 µM
# [21] = second compound 0.316 µM, first compound 0.0316 µM
# [22] = second compound 0.316 µM, first compound 0.1 µM
# [23] = second compound 0.316 µM, first compound 0.316 µM
# [24] = second compound 0.316 µM, first compound 1 µM
# [25] = second compound 1 µM, first compound 0.00316 µM
# [26] = second compound 1 µM, first compound 0.01 µM
# [27] = second compound 1 µM, first compound 0.0316 µM
# [28] = second compound 1 µM, first compound 0.1 µM
# [29] = second compound 1 µM, first compound 0.316 µM
# [30] = second compound 1 µM, first compound 1 µM
# [31] = second compound 0.01 µM, first compound 0.000316 µM
# [32] = second compound 0.01 µM, first compound 0.001 µM
# [33] = second compound 0.0316 µM, first compound 0.000316 µM
# [34] = second compound 0.0316 µM, first compound 0.001 µM
# [35] = second compound 0.1 µM, first compound 0.000316 µM
# [36] = second compound 0.1 µM, first compound 0.001 µM
# [37] = second compound 0.316 µM, first compound 0.000316 µM
# [38] = second compound 0.316 µM, first compound 0.001 µM
# [39] = second compound 1 µM, first compound 0.000316 µM
# [40] = second compound 1 µM, first compound 0.001 µM
# 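Further: spheroids exposed to agents for 7 days.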
# 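Wherever viability, T/C is given: 100% = DMSO vehicle control wells.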
structure (smiles),measurement,setting,value
CCN1CCN(Cc2ccc(Nc3ncc(F)c(-c4cc(F)c5nc(C)n(C(C)C)c5c4)n3)nc2)CC1 + CNC(C)C(=O)NC1CN(S(=O)(=O)c2cccc(S(=O)(=O)N3CCC4CCC(C(=O)NC(c5ccccc5)c5ccccc5)N4C(=O)C(NC(=O)C(C)NC)C3)c2)CCC2CCC(C(=O)NC(c3ccccc3)c3ccccc3)N2C1=O,IC50,second compound 0.01 µM,> 1000 nM
same,IC50,second compound 0.0316 µM,> 1000 nM
same,IC50,second compound 0.1 µM,> 1000 nM
same,IC50,second compound 0.316 µM,> 1000 nM
same,IC50,second compound 1 µM,> 1000 nM
same,"viability, T/C",[1],85.5%
same,"viability, T/C",[2],110%
same,"viability, T/C",[3],109%
same,"viability, T/C",[4],129%
same,"viability, T/C",[5],123%
same,"viability, T/C",[6],114%
same,"viability, T/C",[7],111%
same,"viability, T/C",[8],90.2%
same,"viability, T/C",[9],114%
same,"viability, T/C",[10],114%
same,"viability, T/C",[11],143%
same,"viability, T/C",[12],120%
same,"viability, T/C",[13],112%
same,"viability, T/C",[14],120%
same,"viability, T/C",[15],118%
same,"viability, T/C",[16],132%
same,"viability, T/C",[17],143%
same,"viability, T/C",[18],107%
same,"viability, T/C",[19],107%
same,"viability, T/C",[20],108%
same,"viability, T/C",[21],126%
same,"viability, T/C",[22],131%
same,"viability, T/C",[23],134%
same,"viability, T/C",[24],110%
same,"viability, T/C",[25],120%
same,"viability, T/C",[26],113%
same,"viability, T/C",[27],118%
same,"viability, T/C",[28],138%
same,"viability, T/C",[29],148%
same,"viability, T/C",[30],120%
Cn1ncnc1[C@H]1c2n[nH]c(=O)c3cc(F)cc(c23)N[C@@H]1c1ccc(F)cc1 + CNC(C)C(=O)NC1CN(S(=O)(=O)c2cccc(S(=O)(=O)N3CCC4CCC(C(=O)NC(c5ccccc5)c5ccccc5)N4C(=O)C(NC(=O)C(C)NC)C3)c2)CCC2CCC(C(=O)NC(c3ccccc3)c3ccccc3)N2C1=O,IC50,second compound 0.01 µM,> 100 nM
same,IC50,second compound 0.0316 µM,> 100 nM
same,IC50,second compound 0.1 µM,> 100 nM
same,IC50,second compound 0.316 µM,> 100 nM
same,IC50,second compound 1 µM,> 100 nM
same,"viability, T/C",[31],100%
same,"viability, T/C",[32],97.5%
same,"viability, T/C",[1],106%
same,"viability, T/C",[2],119%
same,"viability, T/C",[3],144%
same,"viability, T/C",[4],144%
same,"viability, T/C",[33],108%
same,"viability, T/C",[34],103%
same,"viability, T/C",[7],129%
same,"viability, T/C",[8],124%
same,"viability, T/C",[9],133%
same,"viability, T/C",[10],155%
same,"viability, T/C",[35],121%
same,"viability, T/C",[36],115%
same,"viability, T/C",[13],124%
same,"viability, T/C",[14],127%
same,"viability, T/C",[15],146%
same,"viability, T/C",[16],155%
same,"viability, T/C",[37],101%
same,"viability, T/C",[38],101%
same,"viability, T/C",[19],108%
same,"viability, T/C",[20],128%
same,"viability, T/C",[21],147%
same,"viability, T/C",[22],159%
same,"viability, T/C",[39],91.3%
same,"viability, T/C",[40],115%
same,"viability, T/C",[25],104%
same,"viability, T/C",[26],131%
same,"viability, T/C",[27],130%
same,"viability, T/C",[28],149%
NC(=O)C(=Cn1cnc(-c2cc(C(F)(F)F)cc(C(F)(F)F)c2)n1)c1cncnc1 + CNC(C)C(=O)NC1CN(S(=O)(=O)c2cccc(S(=O)(=O)N3CCC4CCC(C(=O)NC(c5ccccc5)c5ccccc5)N4C(=O)C(NC(=O)C(C)NC)C3)c2)CCC2CCC(C(=O)NC(c3ccccc3)c3ccccc3)N2C1=O,IC50,second compound 0.01 µM,192 nM
same,IC50,second compound 0.0316 µM,204 nM
same,IC50,second compound 0.1 µM,210 nM
same,IC50,second compound 0.316 µM,194 nM
same,IC50,second compound 1 µM,178 nM
same,"viability, T/C","second compound 0.01 µM, first compound 0.000949 µM",127%
same,"viability, T/C","second compound 0.01 µM, first compound 0.003 µM",102%
same,"viability, T/C","second compound 0.01 µM, first compound 0.00949 µM",98.9%
same,"viability, T/C","second compound 0.01 µM, first compound 0.03 µM",128%
same,"viability, T/C","second compound 0.01 µM, first compound 0.0949 µM",90.3%
same,"viability, T/C","second compound 0.01 µM, first compound 0.3 µM",24.3%
same,"viability, T/C","second compound 0.0316 µM, first compound 0.000949 µM",105%
same,"viability, T/C","second compound 0.0316 µM, first compound 0.003 µM",113%
same,"viability, T/C","second compound 0.0316 µM, first compound 0.00949 µM",93.8%
same,"viability, T/C","second compound 0.0316 µM, first compound 0.03 µM",109%
same,"viability, T/C","second compound 0.0316 µM, first compound 0.0949 µM",96.9%
same,"viability, T/C","second compound 0.0316 µM, first compound 0.3 µM",26.4%
same,"viability, T/C","second compound 0.1 µM, first compound 0.000949 µM",114%
same,"viability, T/C","second compound 0.1 µM, first compound 0.003 µM",109%
same,"viability, T/C","second compound 0.1 µM, first compound 0.00949 µM",113%
same,"viability, T/C","second compound 0.1 µM, first compound 0.03 µM",118%
same,"viability, T/C","second compound 0.1 µM, first compound 0.0949 µM",107%
same,"viability, T/C","second compound 0.1 µM, first compound 0.3 µM",24.6%
same,"viability, T/C","second compound 0.316 µM, first compound 0.000949 µM",103%
same,"viability, T/C","second compound 0.316 µM, first compound 0.003 µM",107%
same,"viability, T/C","second compound 0.316 µM, first compound 0.00949 µM",110%
same,"viability, T/C","second compound 0.316 µM, first compound 0.03 µM",111%
same,"viability, T/C","second compound 0.316 µM, first compound 0.0949 µM",97.8%
same,"viability, T/C","second compound 0.316 µM, first compound 0.3 µM",20.3%
same,"viability, T/C","second compound 1 µM, first compound 0.000949 µM",93.6%
same,"viability, T/C","second compound 1 µM, first compound 0.003 µM",108%
same,"viability, T/C","second compound 1 µM, first compound 0.00949 µM",113%
same,"viability, T/C","second compound 1 µM, first compound 0.03 µM",111%
same,"viability, T/C","second compound 1 µM, first compound 0.0949 µM",85.8%
same,"viability, T/C","second compound 1 µM, first compound 0.3 µM",20.2%
NC1CCC(NC2CC2c2ccccc2)CC1 (stereo not given) + CNC(C)C(=O)NC1CN(S(=O)(=O)c2cccc(S(=O)(=O)N3CCC4CCC(C(=O)NC(c5ccccc5)c5ccccc5)N4C(=O)C(NC(=O)C(C)NC)C3)c2)CCC2CCC(C(=O)NC(c3ccccc3)c3ccccc3)N2C1=O,IC50,second compound 0.01 µM,> 100 nM
same,IC50,second compound 0.0316 µM,> 100 nM
same,IC50,second compound 0.1 µM,> 100 nM
same,IC50,second compound 0.316 µM,> 100 nM
same,IC50,second compound 1 µM,> 100 nM
same,"viability, T/C",[31],116%
same,"viability, T/C",[32],105%
same,"viability, T/C",[1],109%
same,"viability, T/C",[2],101%
same,"viability, T/C",[3],109%
same,"viability, T/C",[4],106%
same,"viability, T/C",[33],117%
same,"viability, T/C",[34],120%
same,"viability, T/C",[7],111%
same,"viability, T/C",[8],114%
same,"viability, T/C",[9],102%
same,"viability, T/C",[10],91.7%
same,"viability, T/C",[35],107%
same,"viability, T/C",[36],115%
same,"viability, T/C",[13],121%
same,"viability, T/C",[14],111%
same,"viability, T/C",[15],121%
same,"viability, T/C",[16],109%
same,"viability, T/C",[37],121%
same,"viability, T/C",[38],144%
same,"viability, T/C",[19],115%
same,"viability, T/C",[20],106%
same,"viability, T/C",[21],111%
same,"viability, T/C",[22],125%
same,"viability, T/C",[39],109%
same,"viability, T/C",[40],119%
same,"viability, T/C",[25],125%
same,"viability, T/C",[26],109%
same,"viability, T/C",[27],123%
same,"viability, T/C",[28],121%
O=C(c1ccc(F)c(F)c1Nc1ccc(I)cc1F)N1CC(O)([C@@H]2CCCCN2)C1 + CNC(C)C(=O)NC1CN(S(=O)(=O)c2cccc(S(=O)(=O)N3CCC4CCC(C(=O)NC(c5ccccc5)c5ccccc5)N4C(=O)C(NC(=O)C(C)NC)C3)c2)CCC2CCC(C(=O)NC(c3ccccc3)c3ccccc3)N2C1=O,IC50,second compound 0.01 µM,178 nM
same,IC50,second compound 0.0316 µM,176 nM
same,IC50,second compound 0.1 µM,134 nM
same,IC50,second compound 0.316 µM,126 nM
same,IC50,second compound 1 µM,85.4 nM
same,"viability, T/C",[1],90.3%
same,"viability, T/C",[2],89.6%
same,"viability, T/C",[3],106%
same,"viability, T/C",[4],78.4%
same,"viability, T/C",[5],21.6%
same,"viability, T/C",[6],11.9%
same,"viability, T/C",[7],110%
same,"viability, T/C",[8],95.9%
same,"viability, T/C",[9],115%
same,"viability, T/C",[10],82.2%
same,"viability, T/C",[11],17%
same,"viability, T/C",[12],10.4%
same,"viability, T/C",[13],107%
same,"viability, T/C",[14],104%
same,"viability, T/C",[15],98.8%
same,"viability, T/C",[16],61.7%
same,"viability, T/C",[17],15.8%
same,"viability, T/C",[18],9.21%
same,"viability, T/C",[19],112%
same,"viability, T/C",[20],112%
same,"viability, T/C",[21],108%
same,"viability, T/C",[22],59.4%
same,"viability, T/C",[23],12.6%
same,"viability, T/C",[24],7.61%
same,"viability, T/C",[25],106%
same,"viability, T/C",[26],119%
same,"viability, T/C",[27],105%
same,"viability, T/C",[28],41.2%
same,"viability, T/C",[29],8.18%
same,"viability, T/C",[30],7.39%
